The record followed here is ChEMBL document CHEMBL1201862, “PubChem BioAssay data set” (2004).

Holding throughout (test): NCI anticancer screen, dose series, 48 h
Experiment [1] has as its system ACHN.
Experiment [2] relates to CCRF-CEM.
In experiment [3] the test system is DU-145.
For experiment [4], the system named is HCT-15.
Experiment [5] concerns HOP-92.
Experiment [6] deals with Hs-578T.
Experiment [7] has as its system K562.
Experiment [8] has as its system KM12.
In experiment [9] the test system is MCF7.
The subject of experiment [10] is NCI-H226.
In experiment [11] the test system is NCI/ADR-RES.
Experiment [12] deals with PC-3.
Experiment [13] has as its system SF-268.
The subject of experiment [14] is SK-MEL-2.
In experiment [15] the test system is T47D.
Experiment [16] deals with MDA-MB-231.

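Exposure lasted 48 hours, with cells grown in 96-well plates and compounds tested at five concentrations. The concentration for 50% growth inhibition is given as GI50.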 Calls of active or inactive are those of the source. Cut-off read from the data, not from the text of the source: active = GI50 up to about 1.1 µM and inactive = higher. Where only a bound is given, the exact number is not on record here.

Turning to `CCOP1(=O)C=C(Sc2ccc([N+](=O)[O-])cc2[N+](=O)[O-])C(C)(C)O1` (centres undefined), the GI50 in [1] is 14.5 µM (inactive); in experiment [2] it was 2.42 µM (inactive); in experiment [3] it was 13.4 µM (inactive); in [4], 14.7 µM; in experiment [5], 7.26 µM (inactive); in [6] it was 26.7 µM (inactive). The GI50 is 2.52 µM (inactive) in [7]; 16.5 µM (inactive) in [8]; 3.99 µM (inactive) in [9]; 25.5 µM (inactive) in experiment [10]; 25.3 µM (inactive) in [11]; 11.9 µM (inactive) in [12]. Further, the GI50 in experiment [13] is 17.6 µM (inactive); in experiment [14], 11.3 µM (inactive); in experiment [15], 14.6 µM (inactive).
As to `COC(=O)c1sc2nc(Nc3ccccc3)/c(=N\c3ccccc3)sc2c1C`, the GI50 in experiment [1] is 32.7 µM (inactive); in experiment [2] it was > 100 µM (inactive); in experiment [3], > 100 µM (inactive); in experiment [4] it was above 100 µM; in experiment [5] it was 31.3 µM (inactive); in experiment [6] it was 27.7 µM (inactive). The GI50 was > 100 µM (inactive) in experiment [7]; > 100 µM (inactive) in experiment [8]; > 100 µM (inactive) in experiment [16]; > 100 µM (inactive) in experiment [10]; 80.5 µM (inactive) in experiment [11]; > 100 µM (inactive) in experiment [12]. The GI50 in experiment [13] is 57.3 µM (inactive); in [14], 48.6 µM (inactive); in experiment [15], > 100 µM (inactive).
As for `COc1ccccc1NC(=O)O/N=C(/Cl)C(C)C`, the GI50 in experiment [1] is 5.92 µM (inactive); in [2] it was 0.977 µM (active); in experiment [3], 18.8 µM (inactive); in experiment [4] it was 13.2 µM; in [6], 24.9 µM (inactive); in experiment [7] it was 2.24 µM (inactive). In addition, the GI50 is 20.2 µM (inactive) in [8]; > 10 µM (inactive) in experiment [9]; 7.19 µM (inactive) in experiment [16]; 20.8 µM (inactive) in [10]; 15.3 µM (inactive) in [11]; 18.5 µM (inactive) in experiment [12]. For the same compound, the GI50 is 16.6 µM (inactive) in experiment [13], 16.4 µM (inactive) in [14] and 21 µM (inactive) in experiment [15].
As to `Fc1ccc2c3c([nH]c2c1)CCNC3`, the GI50 in experiment [1] was 65.3 µM (inactive); in experiment [2], > 100 µM (inactive); in [3], > 100 µM (inactive); in [4] it was above 100 µM; in [5] it was 29.5 µM (inactive); in experiment [6], > 100 µM (inactive). Besides, the GI50 is > 100 µM (inactive) in experiment [7]; > 100 µM (inactive) in experiment [8]; > 100 µM (inactive) in experiment [9]; > 100 µM (inactive) in experiment [16]; 59.6 µM (inactive) in experiment [10]; > 100 µM (inactive) in [11]. Also, the GI50 in experiment [13] and in experiment [15] was > 100 µM (inactive) each time.
Take `CC(C)(C)OC(=O)NCCCCCCC(=O)Cc1ccccc1`: the GI50 in experiment [1] is > 100 µM (inactive); in experiment [2], > 100 µM (inactive); in [3], > 100 µM (inactive); in [4], above 100 µM; in experiment [5], > 100 µM (inactive); in [7], > 100 µM (inactive). For the same compound, the GI50 in experiment [8], in experiment [9], in [16], in experiment [10], in experiment [11] and in experiment [12] was > 100 µM (inactive) throughout. In addition, the GI50 in [13], in [14] and in [15] was > 100 µM (inactive) each time.
`C[N+]12C=CC=C1C(N1CCCC1)c1scc(-c3ccccc3)c12` (centres undefined): the GI50 was 22.4 µM (inactive) in [2]; 52.2 µM (inactive) in experiment [3]; 9.84 µM (inactive) in experiment [6]; 6 µM (inactive) in experiment [7]; 8.55 µM (inactive) in experiment [8]; 14.8 µM (inactive) in experiment [9]. The GI50 in [16] was 37.8 µM (inactive); in experiment [10], 1.6 µM (inactive); in experiment [11], > 100 µM (inactive); in experiment [12] it was 17.1 µM (inactive); in experiment [13], 15.6 µM (inactive); in experiment [14], 6.78 µM (inactive). In experiment [15], the GI50 is 4.25 µM (inactive).
Consider `O=C1/C(=C/c2ccc(Cl)cc2)NC(=S)N1CN1CCCCC1`, for which the GI50 was 24.6 µM (inactive) in experiment [1]; 17.8 µM (inactive) in experiment [2]; 45.8 µM (inactive) in experiment [3]; 22.6 µM in experiment [4]; 50.5 µM (inactive) in experiment [5]; 21.5 µM (inactive) in experiment [6]. Further, the GI50 in [7] is 34 µM (inactive); in experiment [8], 38.7 µM (inactive); in experiment [9] it was 29.2 µM (inactive); in [16], 49.9 µM (inactive); in experiment [10], 32.3 µM (inactive); in experiment [11], 19.3 µM (inactive). For the same compound, the GI50 is 48.4 µM (inactive) in [12], 20.5 µM (inactive) in experiment [13] and 73.1 µM (inactive) in [14].
Consider `O=C(c1ccccc1)N1CCC(Nc2nccs2)O1` (centres undefined), for which the GI50 in experiment [1] was > 10 µM (inactive); in [2], > 10 µM (inactive); in experiment [3] it was > 10 µM (inactive); in [4], above 10 µM; in [6], > 10 µM (inactive); in experiment [7], > 10 µM (inactive). Besides, the GI50 in experiment [9], in [16], in experiment [10], in experiment [11], in experiment [12] and in [13] was > 10 µM (inactive) throughout. Further, the GI50 in experiment [14] and in experiment [15] was > 10 µM (inactive) in each case.
For the compound `O=C1CNC(=O)/C(=C/c2c[nH]c3ccccc23)N1`, the GI50 in experiment [1] is > 100 µM (inactive); in experiment [3], > 100 µM (inactive); in experiment [4] it was above 100 µM; in experiment [5] it was > 100 µM (inactive); in [6], > 100 µM (inactive); in experiment [7] it was > 100 µM (inactive). The GI50 in [8], in experiment [9], in experiment [10], in experiment [11], in [12] and in experiment [13] was > 100 µM (inactive) each time. Besides, the GI50 in experiment [14] and in [15] was > 100 µM (inactive) each time.
`COc1ccc(/N=C(/C[S+]([O-])c2ccc(C)cc2)C(F)(F)F)cc1` (centres undefined): the GI50 in experiment [1] is 50.6 µM (inactive); in experiment [2], 61.9 µM (inactive); in [3], > 100 µM (inactive); in experiment [4], above 100 µM; in experiment [5] it was > 100 µM (inactive); in experiment [7], 59.7 µM (inactive). In addition, the GI50 in experiment [8] was 27.9 µM (inactive); in experiment [9] it was > 100 µM (inactive); in experiment [16] it was > 100 µM (inactive); in experiment [10], > 100 µM (inactive); in experiment [11], > 100 µM (inactive); in experiment [12], 26.5 µM (inactive). Further, the results for the GI50 in experiment [14] and in experiment [15] were 50.2 µM (inactive) and > 100 µM (inactive), respectively.
Take `CC1=NN(c2nc(N)nc(CSc3nc4n(c(=S)n3)CCN4)n2)C(C)(C)C1`: the GI50 in experiment [1] is 44.9 µM (inactive); in [2] it was > 100 µM (inactive); in experiment [4] it was 32 µM; in [5], 18.6 µM (inactive); in experiment [6] it was 15.6 µM (inactive); in [7], > 100 µM (inactive). For the same compound, the GI50 in [8] is > 100 µM (inactive); in experiment [9], 51.5 µM (inactive); in [16], 29.6 µM (inactive); in experiment [10] it was 15 µM (inactive); in experiment [11], 30.1 µM (inactive); in experiment [12] it was 30.1 µM (inactive). Further, the GI50 in [13] is 15.3 µM (inactive); in [14], 16.8 µM (inactive); in experiment [15], 21.7 µM (inactive).
In the case of `CCOC(=O)/C(=C\NC(C)(C)C)c1nc2ccccc2[nH]1`, the GI50 in experiment [1] is 20.4 µM (inactive); in [2], 17.7 µM (inactive); in experiment [3], 29.9 µM (inactive); in experiment [4], 34.2 µM; in experiment [5], 25.2 µM (inactive); in experiment [6], 19.6 µM (inactive). For the same compound, the GI50 in [8] was 19.9 µM (inactive); in experiment [9] it was 18.6 µM (inactive); in experiment [10], 22.9 µM (inactive); in experiment [11] it was 32 µM (inactive); in experiment [13], 23.7 µM (inactive).
As for `O=C1c2ccc3c4ccc5c6c(ccc(c7ccc(c2c37)C(=O)N1CCN1CCCCC1)c64)C(=O)N(CCN1CCCCC1)C5=O`, the GI50 was > 100 µM (inactive) in [1]; > 100 µM (inactive) in experiment [2]; > 100 µM (inactive) in experiment [3]; above 100 µM in experiment [4]; > 100 µM (inactive) in experiment [5]; > 100 µM (inactive) in experiment [6]. Also, the GI50 in [7], in experiment [8], in experiment [9], in experiment [10], in experiment [11] and in experiment [12] was > 100 µM (inactive) each time. Moreover, the GI50 in experiment [13], in experiment [14] and in experiment [15] was > 100 µM (inactive) each time.
With `c1cc2c(cc1NC1=NCCO1)CCC2`, the GI50 in experiment [2] is > 10 µM (inactive); in experiment [4], above 10 µM; in experiment [5], 7.5 µM (inactive); in [6], 1.03 µM (active); in experiment [7], 9.75 µM (inactive); in [8] it was > 10 µM (inactive). Besides, the GI50 in experiment [9], in [12], in experiment [13], in experiment [14] and in experiment [15] was > 10 µM (inactive) each time.
With `CC(=O)Oc1ccccc1C(=O)O` [ASPIRIN], the GI50 in [1] was > 100 µM (inactive); in [2], > 100 µM (inactive); in [3], > 100 µM (inactive); in [4], above 100 µM; in experiment [7] it was > 100 µM (inactive); in experiment [8] it was > 100 µM (inactive). Further, the GI50 in [9], in experiment [10], in experiment [11], in experiment [12], in experiment [13] and in experiment [14] was > 100 µM (inactive) each time. The GI50 in experiment [15] is > 100 µM (inactive).
